In patent US20100273656A1, “COMPOSITION AND METHOD FOR SELECTIVE HERBICIDE” (priority 2002, published 2010):

How the values were obtained:
broadleaf plantain = test: Example 19 FeHEDTA with Killex at reduced rates, broadleaf plantain; assay type: in vivo; details: Killex ® 0%, 7 days after application
Description: (§1) Plants were fertilized with an all purpose water-soluble fertilizer mix of 20-20-20 (N-P-K; Plant-Prod®) as needed. All broadleaf weeds were grown individually in a 2¼-inch pot until they were a suitable size for herbicide tests (actual weed size is reported in examples below). Perennial ryegrass was also grown in 2¼-inch pots, however many grass seeds were sown in the pot to simulate a small section of turf. Grass plants were continually trimmed to a height of 4 cm, simulating that of a homeowner's lawn. For field tests, plots ¼ m^2 in size were marked out in areas containing the targeted broadleaf weed species growing in turf grass. Plots were continually mowed to simulate a homeowner's lawn. […] In all of the examples, the amounts of the various herbicide components are identified as a percent on a weight basis.
(§2) Killex® (Scotts Canada, Ltd., Ontario, Canada) is a commonly used selective lawn herbicide and was used as the commercial herbicide for herbicide combinations. The labeled dilution and application rates for Killex® are 6 ml into 1 L of solution (0.6%) applied at 200 ml/m^2.
(§3) All visual plant damage assessments were made using a quantitative rating scale; percent control relative to the untreated check (0=no effect; 100=plant death).
Materials and Methods: This trial was conducted in the greenhouse. Ten broadleaf plantain plants and 5 pots of perennial ryegrass were selected for each treatment. Herbicide solutions were prepared using deionized water. The treatments were applied using a hand-trigger sprayer at 200 ml/m^2. All treatments were applied once. Phytotoxicity (%) was assessed 7 days after application (A7).

white clover [1] = test: Example 22 field test FeIDS and/or FeHEDTA with Killex, white clover; assay type: in vivo; details: A7 = 7 days after treatment
Description: as §1, with “basis. […]” for “basis.”
as §3
Materials and Methods: Plots ¼ m^2 in size were marked out in white clover and Park Lawn (turfgrass mixture comprising of 65% perennial ryegrass, 25% chewings/creeping red fescue and 10% Kentucky bluegrass) area in the field. […] Phytotoxicity (%) was assessed on 7 days after treatment (A7).

[2] = test system: dandelion (Taraxacum officinale); test: Example 11 field test, dandelion in lawn; assay type: in vivo
Description: Killex® (Green Cross, Ontario, Canada) is a commonly used selective lawn herbicide and was included in several field tests as a standard. Killex contains 2,4-D (9.5%), mecoprop (5%) and dicamba (0.9%). The product was diluted 6 ml into 1 L of water solution and applied at rate of 200 ml/m^2, as per label instructions.
This test investigated the effect of FeHEDTA and a mixture of FeEDDS and FeMGDA on daisy (Bellis perennis), dandelion (Taraxacum officinale) and a turf bentgrass (Agrostis sp.). The chelating agents were used at one and a half times the molar amount of iron. The FeHEDTA solutions contained 0.2% iron (35.8 mM). The commercially prepared FeHEDTA product from the Monterey Chemical Company (CA, USA) was used as a standard. The (FeEDDS+FeMGDA) solutions contained 0.4% iron (71.6 mM) and the same molar amount of EDDS and MGDA. The solutions were made from NaEDDS (Octaquest E30, Octel) and NaMGDA (Trilon M liquid, BASF, Germany). Ammonium sulfate was added at a concentration of 1%. Killex (Solaris ON, Canada) was diluted and applied as per label instructions of 6 ml/L applied at 200 ml/m^2.
The daisy (0.25 m^2) and dandelion (0.5 m^2) test plots were in different areas of the bentgrass field. The dandelions were large, averaging 30 cm in diameter. The daisy patches were between 10 and 20 cm in diameter. The plants were sprayed weekly 4 times.

white clover [3] = test: Example 18 FeHEDTA with Killex, white clover; assay type: in vivo
Description: as §1, §2, §3
Materials and Methods: This trial was conducted in the greenhouse. Nine pots of white clover and 10 pots of perennial ryegrass were selected for each treatment. Herbicide solutions were prepared using deionized water. The treatments were applied using a hand-trigger sprayer at 200 ml/m^2. All treatments were applied once. Phytotoxicity (%) was assessed 4, 7, and 14 days after application (A4, A7, and A14).

dandelions [4] = test: Example 1 field test of iron chelates, dandelion damage; assay type: in vivo, Taraxacum officinale; details: sprayed once at 100 ml/m^2, 5 days after spraying
Description: (§4) The following non-limiting examples serve to further describe the invention. Unless otherwise specified, all of the iron solutions were made using the same molar concentration of iron ion as chelating agent. All of the outside tests were done on areas of mixed grass and dandelions that were at least 2 months old. For the greenhouse tests, dandelions were grown in a commercial greenhouse mix, using supplemental lighting and heating. Each plant was grown in a 2¼ inch pot to a minimum diameter of 20 cm. All of the solutions were sprayed onto the plants at a rate of 100 ml/m^2. The ferrous sulfate formulations that were used in examples 1, 2, 8 and 9 contained 1% iron (180 mM), 18 mM EDTA, 1% citric acid and 0.5% urea. In all of the examples, the amount of iron is identified in brackets as the percent iron on a weight basis.
(§5) All plant damage was assessed using a qualitative rating scale from 0 to 9.
(§6) All of the iron chelates were sprayed once at 0.2% Fe^+3 (35.8 mM), at a volume of 100 ml/m^2 onto 0.5 m^2 areas of mixed grass and dandelions. The spraying of the test was followed by 2 days of rain-free weather. Observations were made 5 days after spraying.

grass = test: Example 1 field test of iron chelates, grass damage; assay type: in vivo; details: in vivo
Description: as §4, §5, §6

dandelions [5] = test: Example 10 FeHEDTA at 0.1% and 0.2% Fe on potted dandelions; assay type: in vivo, Taraxacum officinale
Description: This test investigated using 0.1% (17.9 mM) and 0.2% (35.8 mM) iron, as FeHEDTA, to kill potted dandelions. The solutions contained 10% excess chelating agent.
Small (12 cm diameter) to medium (20 cm diameter) sized, greenhouse-grown dandelions were used. These sizes of dandelions are typically found in lawns. The plants were re-sprayed 7 days after the first spray.

With `O=C([O-])CN(CCO)CCN(CC(=O)[O-])CC(=O)[O-].[Fe+3]` [FeHEDTA] as the molecule, how does the “A7 Phytotoxicity (%) against broadleaf plantain” value (“A7 Phytotoxicity (%)” for short) (broadleaf plantain; listed as FeHEDTA 0.1% Fe) read?
Its value is 9%.

And the “A7 Phytotoxicity (%)” value (broadleaf plantain; listed as FeHEDTA 0.2% Fe)?
Its value is 10%.

What about the “A7 Phytotoxicity (%)” value (broadleaf plantain; listed as FeHEDTA 0.4% Fe) of the same molecule?
Its value is 22%.

What about the “Phytotoxicity (%) against white clover” value (white clover [1]) of the same molecule?
The value was 48%.

What about the “Plot Area Covered by Dandelion Plants (%)” value (shortened to “Plot Area Covered … (%)”) ([2]; day 0 (start of test)) of the same molecule?
The value was 80%.

And the “Dandelion Necrosis (%)” value ([2]; day 2)?
Its value is 95%.

And the “Dandelion Necrosis (%)” value ([2]; day 9)?
Its value is 98%.

And the “Plot Area Covered … (%)” value ([2]; day 13, sprayed weekly 4 times)?
The value was 5%.

What about the “Dandelion Necrosis (%)” value ([2]; day 16) of the same molecule?
The value was 97%.

And the “Plot Area Covered … (%)” value ([2]; day 21)?
Its value is 10%.

And the “Dandelion Necrosis (%)” value ([2]; day 23)?
The value was 97%.

And the “Plot Area Covered … (%)” value ([2]; day 26)?
Its value is 8%.

What about the “Phytotoxicity (%) against white clover” value (white clover [3]; A4) of the same molecule?
Its value is 27%.

What about the “Phytotoxicity (%) against white clover” value (white clover [3]; A7) of the same molecule?
Its value is 50%.

What about the “Phytotoxicity (%) against white clover” value (white clover [3]; A14) of the same molecule?
Its value is 18%.

And the “Dandelion Damage (0 to 9)” value (dandelions [4])?
The value was 8.9 0 to 9.

And the “Grass Damage (0 to 9)” value (grass)?
The value was 0.

And the “susceptibility of dandelions, in words” value (dandelions [5]; 12 to 20 cm diameter dandelions)?
Its value is “very susceptible”.

What about the “Dead Dandelions (#/10)” value (dandelions [5]; dandelion diameter 12 cm, 7 + 6 days (re-sprayed after 7 days)) of the same molecule?
The value was 10 #/10.

What about the “Dead Dandelions (#/10)” value (dandelions [5]; dandelion diameter 12 cm, 6 days after spraying, listed as FeHEDTA (0.1% Fe)) of the same molecule?
The value was 2 #/10.

What about the “Dead Dandelions (#/10)” value (dandelions [5]; dandelion diameter 12 cm, 6 days after spraying, listed as FeHEDTA (0.2% Fe)) of the same molecule?
The value was 8 #/10.

And the “Dead Dandelions (#/10)” value (dandelions [5]; dandelion diameter 16 cm, 7 + 6 days, listed as FeHEDTA (0.1% Fe))?
Its value is 3 #/10.

And the “Dead Dandelions (#/10)” value (dandelions [5]; dandelion diameter 16 cm, 7 + 6 days, listed as FeHEDTA (0.2% Fe))?
The value was 10 #/10.

What about the “Dead Dandelions (#/10)” value (dandelions [5]; dandelion diameter 16 cm, 6 days after spraying, listed as FeHEDTA (0.1% Fe)) of the same molecule?
The value was 1 #/10.

And the “Dead Dandelions (#/10)” value (dandelions [5]; dandelion diameter 16 cm, 6 days after spraying, listed as FeHEDTA (0.2% Fe))?
The value was 3 #/10.

What about the “Dead Dandelions (#/10)” value (dandelions [5]; dandelion diameter 20 cm, 7 + 6 days, listed as FeHEDTA (0.1% Fe)) of the same molecule?
The value was 3 #/10.

And the “Dead Dandelions (#/10)” value (dandelions [5]; dandelion diameter 20 cm, 7 + 6 days, listed as FeHEDTA (0.2% Fe))?
Its value is 8 #/10.

What about the “Dead Dandelions (#/10)” value (dandelions [5]; dandelion diameter 20 cm, 6 days after spraying, listed as FeHEDTA (0.1% Fe)) of the same molecule?
Its value is 0 #/10.

And the “Dead Dandelions (#/10)” value (dandelions [5]; dandelion diameter 20 cm, 6 days after spraying, listed as FeHEDTA (0.2% Fe))?
The value was 1 #/10.
